In publication PMC4213378, “Pharmacokinetics and Efficacy of the Spleen Tyrosine Kinase Inhibitor R406 after Ocular Delivery for Retinoblastoma” (Pharmaceutical Research, 2014):

Tests used:
[1] = Crashing upon dilution of DMSO stock in PBS; format: physicochemical
Excerpt: Supplement 11095_2014_1399_MOESM1_ESM.docx, table 14: Table S14. R406 phenylsulfonate salt and free base crashing upon dilution of DMSO stock in PBS | column: Measured Concentration

[2] = Vitreous pharmacokinetics after oral or subconjunctival administration; format: in vivo, mouse
Experimental: For oral delivery of R788, the target dose of 25 mg/kg R788 was administered by oral gavage as a 4 mM solution in 0.01 N citrate buffer, pH 6 ([9]). For subconjunctival administration, R788 was prepared at a concentration of 4 mM in 2% PEG-800 and filtered through a 0.22 μm filter prior to use (see Table S1). R788 was also administered subconjunctivally as a suspension at a concentration of 25 mM in 10% 2-hydroxylpropyl-β-cyclodextrin (HPβCD, Sigma-Aldrich). For subconjunctival administration, R406 phenylsulfonate salt was administered at a concentration of 800–900 μM as a cosolvent solution in a formulation of 5% Cremaphor-eL, 0.5% ethanol, 0.2% Tween 80 and 94.3% PBS, filtered through a 0.22 μm filter prior to use (see Table S2). R406 phenylsulfonate salt was also administered subconjunctivally at a dose of 31.4 mM solution in DMSO. R406 free base was administered subconjunctivally at a concentration of 6.5 mM as a 25% castor oil (Sigma-Aldrich) emulsion. This emulsion was prepared by mixing castor oil: ethanol (1:1) solution of R406 (approx. 35 mM), in vacuo evaporation of the ethanol, and centrifugation to remove any excess R406, then emulsifying the R406 oil phase in an aqueous phase comprised of Cremaphor-eL, Tween 80 and PBS (final composition of the emulsion: 25% castor oil, 5% Cremaphor-eL, 0.2% Tween-80, 69.8% PBS) by probe sonication. For intravitreal injection, R788 solution was prepared by filtering a 0.12 mM (120 μM) solution of R788 in saline through a 0.22 μm filter. […] For topical delivery, 25–30 mM suspensions were prepared in 5% HPβCD. R406 or R788 concentration in all formulations was determined by UPLC prior to study (in cases where formulation was filtered before administration, concentration was determined post-filtering) Table I.
For the systemic delivery study R788 was administered as a single bolus dose (25 mg/kg, 10 mL/kg volume) by oral gavage. For the subconjunctival administration study R788 or R406 (10 µL of formulation) was injected into the subconjunctival space of an anesthetized mouse using a Hamilton microliter syringe (Hamilton company, Reno NV). For the intravitreal administration study, R788 (5 μL of […] in saline) was administered to each eye via direct injection. To perform the intravitreal injection, mice were anesthetized, a small incision between the sclera and the cornea was created with a […] needle, and the R788 was injected into the vitreous using a Hamilton microliter syringe. For the topical administration study, R406 (2 μL of 25–30 mM suspension) was applied as a drop to the surface of each eye of an anesthetized mouse.
At serial time points (0.5, 1, 2, 4, and 8 h post-injection, n = 3 for each time point), blood was collected by terminal cardiac puncture after isoflurane anesthesia. Whole-blood samples were centrifuged immediately at 10,000×g for 5 min at 4°C to separate plasma. Once the cardiac puncture and blood collection was completed, the animal was perfused with 10 mL of saline and euthanized by cervical dislocation. Eyes were removed, rinsed in PBS, gently patted dry, then rinsed and dried again. Eyes were dissected and vitreous was collected. Plasma and vitreous samples were put on dry ice immediately after collection and stored at −80°C until analysis. For quantitative analysis methods and assay validation methods and results, see Supplementary Information.
Plasma and vitreous concentration time data were analyzed using non-compartmental analysis in WinNonlin 6.2 (Pharsight, Mountain View, CA), providing PK parameters including Cmax (maximum observed concentration), Tmax (time to reach maximum observed concentration), AUC (area under the concentration time curve) and MRT (mean residence time). AUC and AUMC (area under the concentration time first moment curve) values were estimated with the linear trapezoidal method, with parameters calculated using mean concentration values at each time point. […]

[3] = Co-solvent solution formulation solubility matrix; format: physicochemical
[4] = Maximum solubility in PBS or saline; format: physicochemical; settings: PBS; read-out: maximum solubility in PBS
[5] = tested on: retinoblastoma cells; parameters: method as in PMID 22237022; settings: cited from earlier work
[6] = tested on: RB355 cells; test: Activated caspase 3 immunostaining of RB355 cells; format: cell-based
[7] = Concentration and stability of R406 in cosolvent solution formulation; format: physicochemical
Experimental: R406 stability in cosolvent solution: Precipitation of R406 in the cosolvent solution causes a drop in concentration after 48 hours of storage at room temperature (Table S3), but there is no loss of purity indicating R406 is chemically stable in the co-solvent solution for 48 hours at room temperature (Figure S4).

[8] = local (subconjunctival), DMSO 31.4 mM, 314 nmol per eye, mice
[9] = local (subconjunctival), co-solvent solution 0.88 mM, 8.8 nmol per eye, mice
[10] = Storage Time = 48 hr, room temperature

Structure (SMILES): COc1cc(Nc2ncc(F)c(Nc3ccc4c(n3)NC(=O)C(C)(C)O4)n2)cc(OC)c1OC.O=S(=O)(O)c1ccccc1 [R406 phenylsulfonate salt]
- Measured Concentration ([1]; 10 mM DMSO stock diluted 1 in 10 in PBS prior to filtration): 1010 µM
- Measured Concentration ([1]; DMSO stock diluted 1 in 10 in PBS, 0.22 micron filtered): 88 µM
- Measured Concentration ([1]; DMSO stock diluted 1 in 20 in PBS prior to filtration): 559 µM
- Measured Concentration ([1]; DMSO stock diluted 1 in 20 in PBS, 0.22 micron filtered): 98 µM
- ratio of vitreous AUC to plasma AUC relative to R788 in suspension (250 nmol per eye) ([2]; R406 salt administered locally, 314 nmol total per eye): 22 fold
- Cmax [2, 8]: 892 ± 350 nM
- Ratio Vitreous AUClast/Plasma AUClast [2, 8]: 6.6
- Vitreous AUClast [2, 8]: 1,960 nM∙h
- Vitreous Dose normalized AUC [2, 8]: 3.1 nM∙h/nmol
- Vitreous MRT0-4h [2, 8]: 121 min
- Vitreous Tlast [2, 8]: 4 h
- Vitreous Tmax [2, 8]: 30 min
- Vitreous MRT0-4h ([2]; local (subconjunctival), DMSO 31.4 mM, 314 nmol per eye, mice, listed as R406 salt): ≥ 120 min
- Cmax [2, 9]: 41.3 ± 18 nM
- Vitreous AUClast [2, 9]: 33.7 nM·h
- Vitreous Dose normalized AUC [2, 9]: 1.9 nM∙h/nmol
- Vitreous MRT0-4h [2, 9]: 46.9 min
- Vitreous Tlast [2, 9]: 2 h
- Vitreous Tmax [2, 9]: 30 min
- Vitreous MRT0-4h ([2]; local (subconjunctival), co-solvent solution 0.88 mM, 8.8 nmol per eye, mice, listed as R406 salt): less than 1 h
- R406 Solubility ([3]; Trial 1: 0.1% Tyloxapol, 99.9% PBS): 11.7 mM
- R406 Solubility ([3]; Trial 4: 3% Glycerin, 97% PBS): 0.4 mM
- R406 Solubility ([3]; Trial 5: 5% Cremaphor-eL, 95% PBS): 170.1 mM
- R406 Solubility ([3]; Trial 6: 10% pG, 90% PBS): 0.4 mM
- R406 Solubility ([3]; Trial 7: 15% pPG, 85% PBS): 15 mM
- R406 Solubility ([3]; Trial 8: 0.2% Tween-80, 99.8% PBS): 399.2 mM
- R406 Solubility ([3]; Trial 9: 100% PBS): 0.4 mM
- R406 Solubility ([3]; Trial 10: 2% PEG-8000, 0.2% Tween-80, 97.8% PBS): 0.4 mM
- R406 Solubility ([3]; Trial 11: 0.5% EtOH, 0.2% Tween-80, 85.8% PBS): 0.6 mM
- R406 Solubility ([3]; Trial 12: 3% Glycerin, 0.2% Tween-80, 96.8% PBS): 1.0 mM
- R406 Solubility ([3]; Trial 13: 5% Cremaphor-eL, 0.2% Tween-80, 94.8% PBS): 178.0 mM
- R406 Solubility ([3]; Trial 14: 10% pG, 0.2% Tween-80, 99.8% PBS): 0.9 mM
- R406 Solubility ([3]; Trial 15: 15% pPG, 0.2% Tween-80, 85.8% PBS): 31.4 mM
- R406 Solubility ([3]; Trial 16: 2% PEG-8000, 0.5% EtOH, 97.5% PBS): 1.5 mM
- R406 Solubility ([3]; Trial 17: 2% PEG-8000, 3% Glycerin, 95% PBS): 0.4 mM
- R406 Solubility ([3]; Trial 18: 2% PEG-8000, 5% Cremaphor-eL, 93% PBS): 144.0 mM
- R406 Solubility ([3]; Trial 19: 2% PEG-8000, 10% pG, 88% PBS): 1.4 mM
- R406 Solubility ([3]; Trial 20: 2% PEG-8000, 15% pPG, 83% PBS): 22.9 mM
- R406 Solubility ([3]; Trial 21: 0.5% EtOH, 3% Glycerin, 96.5% PBS): 0.4 mM
- R406 Solubility ([3]; Trial 22: 0.5% EtOH, 5% Cremaphor-eL, 94.5% PBS): 183.9 mM
- R406 Solubility ([3]; Trial 24: 0.5% EtOH, 15% pPG, 84.5% PBS): 18.4 mM
- R406 Solubility ([3]; Trial 25: 3% Glycerin, 5% Cremaphor-eL, 92% PBS): 183.9 mM
- R406 Solubility ([3]; Trial 26: 3% Glycerin, 10% pG, 87% PBS): 0.4 mM
- R406 Solubility ([3]; Trial 27: 3% Glycerin, 15% pPG, 82% PBS): 18.2 mM
- R406 Solubility ([3]; Trial 28: 5% Cremaphor-eL, 10% pG, 85% PBS): 161.5 mM
- R406 Solubility ([3]; Trial 29: 5% Cremaphor-eL, 15% pPG, 80% PBS): 138.0 mM
- R406 Solubility ([3]; Trial 30: 10% pG, 15% pPG, 75% PBS): 23.3 mM
- R406 Solubility ([3]; Trial 32: 0.5% EtOH, 5% Cremaphor-eL, 0.2% Tween-80, 94.3% PBS): 830.9 mM
- R406 Solubility ([3]; Trial 33: 0.5% EtOH, 3% Glycerin, 5% Cremaphor-eL, 0.2% Tween-80, 91.3% PBS): 773.9 mM
- solubility [4]: 0.0004 mM

Structure (SMILES): COc1cc(Nc2ncc(F)c(Nc3ccc4c(n3)NC(=O)C(C)(C)O4)n2)cc(OC)c1OC [R406]
- induction of caspase-mediated cell death of retinoblastoma cells in vitro [5]: can induce caspase-mediated cell death
- caspase 3+ activation compared to untreated or DMSO treated cells ([6]; 1 μM R406, any exposure time up to 48 h): did not show any increase in caspase 3+ activation
- proportion of activated caspase 3+ cells ([6]; 2.5 and 5 μM R406, 0-72 h exposure): increased with increasing exposure duration
- minimal exposure required to kill retinoblastoma cells in culture ([6]; for at least 12 h): > 1 µM
- maximum intraocular concentration that could be reached from subconjunctival route ([2]; DMSO control, 31.4 mM R406 in DMSO, subconjunctival, mice): approximately 1 μM
- maximal concentration achieved in the vitreous ([2]; subconjunctival, 10 μl of R406 solution formulation per eye, mice): 0.05 µM
- Average Concentration in cosolvent formulation ([7]; Initial Concentration, room temperature): 743.6 µM
- Average Concentration in cosolvent formulation [7, 10]: 252.5 µM
- Percentage of Initial Concentration in cosolvent formulation [7, 10]: 34%
- maximum concentration of R406 in solution formulation ([7]; cosolvent solution formulation with FDA approved ophthalmic adjuvants): approximately 900 μM
- time chemically stable in cosolvent solution formulation (no loss of purity) ([7]; room temperature): 48 h
